Results as given in patent publication US7351720B2, “N-ureidoalkyl-piperidines as modulators of chemokine receptor activity” (Bristol-Myers Squibb Company, priority 2003, dated 2008).

melting point: 191 °C
SMILES: CC(=O)N(C)[C@@H]1CC[C@@H](NC(=O)Nc2nc(C)cs2)[C@H](CN2CCC[C@@H](Cc3ccc(F)cc3)C2)C1 [Example 1, N-{(3S,4R)-3-[3S-(4-Fluorobenzyl)-piperidin-1-ylmethyl]-4-[3-(4-methyl-thiazol-2-yl)-ureido]-(R)-cyclohexyl}-N-methyl-acetamide]
